Measurements taken from patent US20210015819A1, “METHODS FOR TREATMENT OF CANCERS WITH EGFR ACTIVATING MUTATIONS” (Board of Regents, The University of Texas System, priority 2018, published 2021).
Where two headings read alike, the source gives them in different places.

System: YUL0019 PR8 cells
Test: Drug sensitivity of poziotinib resistant YUL0019 cells (FIG. 8)
Assay type: cell-based

Cc1csc(-c2nnc(Nc3ccc(Oc4ncccc4-c4ccnc(N)n4)cc3)c3ccccc23)c1 [AMG 900]
Sensitivity of YUL0019 PR8 (poziotinib resistant) cells (listed as AMG900): sensitive | Sensitivity of YUL0019 PR8 (poziotinib resistant) cells (listed as AMG-900): highly sensitive

CN1CC[C@H](c2c(O)cc(O)c3c(=O)cc(-c4ccccc4Cl)oc23)[C@H](O)C1 [Alvocidib]
Sensitivity of YUL0019 PR8 (poziotinib resistant) cells: highly sensitive

CC[C@@H]1C(=O)N(C)c2cnc(Nc3ccc(C(=O)N[C@H]4CC[C@H](N5CCN(CC6CC6)CC5)CC4)cc3OC)nc2N1C(C)C [BI6727 (Volasertib)]
Sensitivity of YUL0019 PR8 (poziotinib resistant) cells: highly sensitive

Cc1ccc(C(=O)N(CCCN)[C@@H](c2nc3cc(Cl)ccc3c(=O)n2Cc2ccccc2)C(C)C)cc1 [Ispinesib]
Sensitivity of YUL0019 PR8 (poziotinib resistant) cells: highly sensitive | Sensitivity of YUL0019 PR8 (poziotinib resistant) cells (listed as ispinasib): sensitive

COc1cc(Nc2ncc3c(n2)-c2ccc(Cl)cc2C(c2c(F)cccc2OC)=NC3)ccc1C(=O)O [MLN8237 (Alisertib)]
Sensitivity of YUL0019 PR8 (poziotinib resistant) cells (listed as Alisertib): sensitive | Sensitivity of YUL0019 PR8 (poziotinib resistant) cells (listed as alisertib): highly sensitive

C=CC(=O)N1CCC(Oc2cc3c(Nc4ccc(Cl)c(Cl)c4F)ncnc3cc2OC)CC1 [poziotinib, 1-[4-[4-(3,4-dichloro-2-fluoroanilino)-7-methoxyquinazolin-6-yl]oxypiperidin-1-yl]prop-2-en-1-one]
Sensitivity of YUL0019 PR8 (poziotinib resistant) cells: resistant
